Laboratory results from ChEMBL document CHEMBL5608208, “Design, synthesis of griseofamine A derivatives and development of potent antibacterial agents against MRSA” (Eur J Med Chem, 2024).
Converted amounts (≈) assume the structure as drawn.

Key:
Assay type in all cases: functional
[1] = test system: Staphylococcus aureus; test: Antibacterial activity against Staphylococcus aureus ATCC 29213 incubated for 18 hrs by serial two-fold dilution method
[2] = test system: Staphylococcus aureus; test: Antibacterial activity against methicillin resistant Staphylococcus aureus ATCC 33592 incubated for 18 hrs by serial two-fold dilution method
[3] = test system: Staphylococcus epidermidis; test: Antibacterial activity against Staphylococcus epidermidis ATCC 12228 incubated for 18 hrs by serial two-fold dilution method
[4] = test system: Staphylococcus aureus; test: Antibacterial activity against methicillin resistant Staphylococcus aureus ATCC 43300 incubated for 18 hrs by serial two-fold dilution method

Row | SMILES | MIC [1] [µg/mL] | MIC [2] [µg/mL] | MIC [3] [µg/mL] | MIC [4] [µg/mL]
1 | C/C(O)=C1\C(=O)[C@@H]2Cc3c([nH]c4ccccc34)[C@@H](Cc3ccccc3)N2C1=O | 32 (≈ 85.9 µM) |  |  | 
2 | CCC(=O)OC1=CC(=O)N2[C@H](c3ccc(-c4cc(F)cc(F)c4)cc3)c3[nH]c4ccccc4c3C[C@@H]12 | > 4 | > 4 | > 4 | 
3 | C/C(O)=C1\C(=O)[C@@H]2Cc3c([nH]c4ccccc34)[C@@H](c3ccc(-c4cccc(F)c4)cc3)N2C1=O | 0.125 (≈ 0.276 µM) | 0.25 (≈ 0.553 µM) | 0.25 (≈ 0.553 µM) | 
4 | C/C(O)=C1\C(=O)[C@@H]2Cc3c([nH]c4ccccc34)[C@@H](c3ccc(-c4ccc(F)cc4)o3)N2C1=O | 0.5 (≈ 1.13 µM) | 0.5 (≈ 1.13 µM) | 0.5 (≈ 1.13 µM) | 0.5 (≈ 1.13 µM)
5 | C/C(O)=C1\C(=O)[C@@H]2Cc3c([nH]c4ccccc34)[C@H](c3cccc(F)c3)N2C1=O | 32 (≈ 85 µM) |  |  | 
6 | C/C(O)=C1\C(=O)[C@@H]2Cc3c([nH]c4ccccc34)[C@@H](c3ccc(C(C)(C)C)cc3)N2C1=O | 4 (≈ 9.65 µM) |  |  | 
7 | CC(=O)OC1=CC(=O)N2[C@H](c3ccc(-c4cc(F)cc(F)c4)cc3)c3[nH]c4ccccc4c3C[C@@H]12 | > 4 | > 4 | > 4 | 
8 | COc1ccc([C@H]2c3[nH]c4ccccc4c3C[C@H]3C(=O)/C(=C(\C)O)C(=O)N23)cc1 | 8 (≈ 20.6 µM) |  |  | 
9 | C/C(O)=C1\C(=O)[C@@H]2Cc3c([nH]c4ccccc34)[C@@H](c3cccc(F)c3)N2C1=O | 8 (≈ 21.3 µM) |  |  | 
10 | C/C(O)=C1\C(=O)[C@@H]2Cc3c([nH]c4ccccc34)[C@H](c3ccc(C(F)(F)F)cc3)N2C1=O | 16 (≈ 37.5 µM) |  |  | 
11 | C/C(N)=C1\C(=O)[C@@H]2Cc3c([nH]c4ccccc34)[C@@H](c3ccc(-c4ccccc4)cc3)N2C1=O | > 4 | > 4 | > 4 | 
12 | COC(=O)[C@@H]1Cc2c([nH]c3ccccc23)[C@@H](C)N1 | > 128 |  |  | 
13 | O=C1/C(=C(/O)c2ccccc2)C(=O)N2[C@H](c3ccc(-c4cc(F)cc(F)c4)cc3)c3[nH]c4ccccc4c3C[C@@H]12 | 0.25 (≈ 0.469 µM) | 0.125 (≈ 0.235 µM) | 0.25 (≈ 0.469 µM) | 0.125 (≈ 0.235 µM)
14 | O=C1/C(=C(/O)c2cccs2)C(=O)N2[C@H](c3ccc(-c4cc(F)cc(F)c4)cc3)c3[nH]c4ccccc4c3C[C@@H]12 | 0.25 (≈ 0.464 µM) | 0.25 (≈ 0.464 µM) | 0.25 (≈ 0.464 µM) | 0.125 (≈ 0.232 µM)
15 | CC[C@@H]1c2[nH]c3ccccc3c2C[C@H]2C(=O)/C(=C(\C)O)C(=O)N12 | > 128 |  |  | 
16 | C/C(O)=C1\C(=O)[C@@H]2Cc3c([nH]c4ccccc34)[C@H](c3ccccc3)N2C1=O | 16 (≈ 44.6 µM) |  |  | 
17 | C/C(O)=C1\C(=O)[C@@H]2Cc3c([nH]c4ccccc34)[C@@H](c3ccc(C)cc3)N2C1=O | 4 (≈ 10.7 µM) |  |  | 
18 | C/C(O)=C1\C(=O)[C@@H]2Cc3c([nH]c4ccccc34)[C@@H](c3ccc(-c4ccc(F)cc4)cc3)N2C1=O | 0.063 (≈ 0.139 µM) | 0.125 (≈ 0.276 µM) | 0.125 (≈ 0.276 µM) | 
19 | C/C(N)=C1\C(=O)[C@@H]2Cc3c([nH]c4ccccc34)[C@@H](c3ccc(-c4ccc(OC(F)(F)F)cc4)cc3)N2C1=O | 4 (≈ 7.73 µM) | 4 (≈ 7.73 µM) | 4 (≈ 7.73 µM) | 
20 | C/C(O)=C1\C(=O)[C@@H]2Cc3c(n(S(=O)(=O)c4ccc(C)cc4)c4ccccc34)[C@@H](c3ccc(-c4ccc(F)cc4)cc3)N2C1=O | 2 (≈ 3.3 µM) | 2 (≈ 3.3 µM) | 0.25 (≈ 0.412 µM) | 
21 | O=C1/C(=C(/O)c2ccc3ccccc3c2)C(=O)N2[C@H](c3ccc(-c4cc(F)cc(F)c4)cc3)c3[nH]c4ccccc4c3C[C@@H]12 | 4 (≈ 6.87 µM) | 2 (≈ 3.43 µM) | 2 (≈ 3.43 µM) | 
22 | C/C(O)=C1\C(=O)[C@@H]2Cc3c([nH]c4ccccc34)[C@@H](c3ccc(-c4cc(C(F)(F)F)cc(C(F)(F)F)c4)cc3)N2C1=O | 1 (≈ 1.75 µM) | 1 (≈ 1.75 µM) | 1 (≈ 1.75 µM) | 
23 | C/C(O)=C1\C(=O)[C@@H]2Cc3c([nH]c4ccccc34)CN2C1=O | 128 (≈ 453 µM) |  |  | 
24 | C/C(O)=C1\C(=O)[C@@H]2Cc3c([nH]c4ccccc34)[C@@H](c3ccc(-c4cccc(C(F)(F)F)c4)cc3)N2C1=O | 0.5 (≈ 0.995 µM) | 0.5 (≈ 0.995 µM) | 0.063 (≈ 0.125 µM) | 
25 | C/C(O)=C1\C(=O)[C@@H]2Cc3c([nH]c4ccccc34)[C@@H](c3ccc(-c4ccc(F)cc4F)cc3)N2C1=O | 0.125 (≈ 0.266 µM) | 0.25 (≈ 0.531 µM) | 0.25 (≈ 0.531 µM) | 0.125 (≈ 0.266 µM)
26 | O=C1/C(=C(/O)c2ccc(F)cc2)C(=O)N2[C@H](c3ccc(-c4cc(F)cc(F)c4)cc3)c3[nH]c4ccccc4c3C[C@@H]12 | 0.5 (≈ 0.908 µM) | 0.5 (≈ 0.908 µM) | 0.5 (≈ 0.908 µM) | 
27 | CC/C(O)=C1\C(=O)[C@@H]2Cc3c([nH]c4ccccc34)[C@@H](c3ccc(-c4cc(F)cc(F)c4)cc3)N2C1=O | 0.063 (≈ 0.13 µM) | 0.063 (≈ 0.13 µM) | 0.125 (≈ 0.258 µM) | 0.063 (≈ 0.13 µM)
